Experimental data reported in patent US20230322933A1, “MODEL FOR PREDICTION OF TOLERABILITY ISSUES IN CONNECTION WITH INTRAVENOUS ADMINISTRATION OF THERAPEUTIC ANTIBODIES” (BIOINVENT INTERNATIONAL AB, priority 2020, published 2023).
Where “and” joins values, the source holds several entries; their conditions need not be identical. Equal entries are not always repeated. Entries after “also recorded” stand apart in the source; their conditions may differ. Each block holds one compound with its values, some of them ahead of it.

Key:
wildtype C57/BL6 mice [1] = assay: Macroscopic IRRs (scoring 0-2) in mice after injection of surrogate antibody, with or without premedication or split-dosing; type: in vivo, mouse; design: key to grade of macroscopic symptoms with single premedication: 0: No visible symptoms; 1: Isolation, decreased activity; 2: Isolation, decreased activity, impaired balance, piloerection, hunching followed by un-natural body posture; details: for effect of anti-histamine premedication alone on IRRs / macroscopic symptoms: pre i.v. injection of 10 mg/kg AT-130-2 IgG2a; for effect of adding anti-histamine to two doses of corticosteroid: with 40 mg/kg Betamethasone (24 hours and 1 hour) pre i.v. 10 mg/kg AT-130-2 IgG2a, macroscopic symptoms and platelet counts; for inhibition of IRRs by other pre-medications: given i.p. 1 h prior to i.v. AT-130-2 IgG2a bulk dose 200 ug/mouse
Experimental: Six to eight weeks-old (17-20 g) female C57/BL6 and Balb C mice were obtained from Taconic or Janvier. Mice were injected i.v with mouse anti-CD32B AT-130-2 IgG2a either as a bulk dose of 200 ug/mouse or as a split-dose with 8 ug/mouse followed by 200 ug/mouse.
For the corticosteroid treatment, Betapred (betamethasone, VNR: 008938, Alfasigma S.P.A.) was used at 10 mg/kg which is a suboptimal dose in these mouse models.
Split-dosing was initiated 24 h post corticosteroid treatment with 8 ug/mouse of mouse anti-CD32B AT-130-2 IgG2a i.v. followed by a bulk-dose of 200 ug/mouse 20-40 minutes later. In parallel mice were injected with only the bulk-dose.
Mice were monitored post injection with regards to changes in behavior and macroscopic symptoms such as isolation, mobility, and fur condition. Macroscopic IRRs scoring system of 0-2 was set up based on the observations.
Other premedications evaluated were anti-PAF (CV3988, sc-201015, Santa Cruz 20 mg/kg), anti-IL6 (clone 15A7, BE0047, Bioxcell, 10 mg/kg), anti-histamine (Zantac, VNR: 077875, GlaxoSmithKline AB, 5 mg/kg) or a leukotriene-antagonist (131064, Apoex, 4 mg/kg). These premedications were given i.p 1 h prior to injection i.v of mouse anti-CD32B AT-130-2 IgG2a as a bulk dose of 200 ug/mouse.
Six to eight weeks-old (17-20 g) female C57/BL6 mice were obtained from Taconic. Mice were injected either intra-venous (i.v.), […] (i.p.) or sub-cutaneous (s.c.) with mouse anti-CD32B AT-130-2 IgG2a in doses ranging from 1 μg-400 μg/mouse.
For the corticosteroid treatment, Betapred (betamethasone, VNR: 008938, Alfasigma S.P.A.) or Dexamethasone (Cat. No: S1322, batch no: 02, Selleckchem) was used. For the anti-histamine treatment Zyrlex (10 mg/ml, VNR: 523084, MACURE PHARMA ApS), Zantac (25 mg/ml, VNR: 077875, GlaxoSmithKline AB) or Aeurius (0.5 mg/ml, VNR: 097288, Merck Sharp & Dohme BV) was used.
Mice were monitored post injection with regard to changes in behavior and macroscopic symptoms such as isolation, mobility, and fur condition. Macroscopic IRRs scoring system of 0-2 was set up based on the observations: […]
For the corticosteroid treatment, Betapred (betamethasone, VNR: 008938, Alfasigma S.P.A.) or Dexamethasone (Cat. No: S1322, Batch No: 02, Selleckchem) was used.

wildtype C57/BL6 mice [2] = assay: Platelet counts in fresh mouse blood (Vetscan) after antibody injection; type: in vivo; details: pre i.v. injection of 10 mg/kg AT-130-2 IgG2a
Experimental: Blood samples were collected from vena saphena 20 min post injection of bulk dose of anti-CD32B for instant blood count analysis. For liver enzyme and cytokine analysis, the mice were bled from the aorta under isoflurane anesthesia just prior to sacrifice. Samples for liver enzymes and cytokines were collected 1 h and respectively 3 h after bulk dose.
Platelet counts were analyzed in fresh blood using a Vetscan (Vetscan HM5 Abaxis, Triolab).
Blood samples were collected from vena saphena for instant blood count analysis. For serum concentrations of AT130-2, liver enzyme and cytokine analysis, the mice were bled from the aorta under isoflurane anesthesia just prior to sacrifice.
Blood samples were collected from vena saphena for instant blood count analysis.

mouse CD32B (mouse) = mouse CD32B (mouse) (UniProt P08101); assay: receptor saturation at 10 µg/ml AT-130-2; separate experiments not shown in the filing
FcγRIIB = molecular target: T1, FcγRIIB (Homo sapiens, UniProt P31994); assay: FcgRIIb receptor occupancy on peripheral B cells (flow cytometry); type: in vivo; details: 100 mg BI-1206; preliminary data
T1 construct: endogenous in cells; host or cells: peripheral CD19+ B cells in whole blood of human subjects (B-cell NHL / CLL patients)
T1 sequence (P31994 43-310): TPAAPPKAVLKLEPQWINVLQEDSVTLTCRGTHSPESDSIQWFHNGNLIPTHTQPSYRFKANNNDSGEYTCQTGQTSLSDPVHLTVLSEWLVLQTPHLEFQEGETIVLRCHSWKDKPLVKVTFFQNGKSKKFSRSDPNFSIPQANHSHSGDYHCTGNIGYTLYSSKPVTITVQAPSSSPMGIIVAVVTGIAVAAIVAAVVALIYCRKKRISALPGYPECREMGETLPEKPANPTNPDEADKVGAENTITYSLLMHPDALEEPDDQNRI
Experimental: The FcgRIIb receptor occupancy in humans and hFcgRIIb transgenic mice was analyzed using flow cytometry. Whole blood from was incubated with either 005-005 antibody (targeting hFcgRIIb) or anti-hCD32-AF647 antibody. 005-005 binds the same epitope as BI-1206 but with much lower affinity. In the analysis, the Geo Mean of respectively mAb (005-005 and anti-human CD32) was acquired on the CD19+ cell population. Receptor occupancy (RO) was calculated using the following equations: RO (%)=((Total Receptors-Normalized Free Receptors)*100)/Total Receptors. All replicates of 005-005 geo mean of CD19+ cells were then multiplied by the Normalization factor.

peripheral B lymphocytes = assay: Peripheral B lymphocyte depletion after BI-1206 infusion; type: in vivo, human; details: 100 mg BI-1206; preliminary data
[3] = system: human subjects with non-hodgkins B-cell lymphoma; assay: Cytokine release in plasma/serum after BI-1206 infusion (MSD); type: in vivo; details: ≥70 mg (70-100 mg) BI-1206
Experimental: For cytokine concentrations, frozen plasma samples were thawed and diluted ×2 and x8. Two parallel set of cytokines were analyzed, the proinflammatory assay with IL-6, IL-8, TNF-α, IFN-γ, IL-10, IL-2 and IL-4 (MesoScale Discovery (MSD) #K15049), and the chemokine assay with MIP-113, IL-113, IL-23, IL-12p70, TARC and VEGF (MSD #K15067). The assays followed the manufacturer's protocol as outlined briefly: 50 μL of sample and calibration standard were added to the appropriate MSD plates and incubated. Following washing, 25 μL of SULFO-TAG detection antibody mixture were added to each well of the corresponding plate. The plates were analyzed on a QuickPlex SQ120 Reader instrument (MSD) and cytokine concentration was calculated using the MSD software (Discovery Workbench, 2013; version LSR-4-0-12).

[4] = system: human subjects with non-hodgkins B-cell lymphoma; assay: Clinical response in patients treated with BI-1206; type: in vivo; details: after incorporation of the premedication regimen into the clinical protocol
[5] = system: human subjects with non-hodgkins B-cell lymphoma; assay: ALT/AST in clinical studies with BI-1206; details: ≥70 mg (70-100 mg) BI-1206
From the text: (§1) Platelet counts, ALT concentrations and IRR grading Platelet counts, ALT concentrations and IRR grading were obtained from clinical sites where analyzed and reported according local standard procedures.

[6] = system: human subjects with non-hodgkins B-cell lymphoma; assay: Platelet counts in clinical studies with BI-1206
From the text: as §1

[7] = system: human subjects with non-hodgkins B-cell lymphoma; assay: Infusion related reactions (IRR grading) in clinical studies with BI-1206
From the text: as §1
Part of the data is based on personal communication with individual investigators.

Chain of mouse CD32B (mouse) (P08101 30-207 limits assumed): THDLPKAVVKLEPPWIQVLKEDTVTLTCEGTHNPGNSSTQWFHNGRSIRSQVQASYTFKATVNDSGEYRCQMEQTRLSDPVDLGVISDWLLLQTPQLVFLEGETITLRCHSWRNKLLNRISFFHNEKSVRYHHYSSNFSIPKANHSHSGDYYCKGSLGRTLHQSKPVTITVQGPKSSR

Compound: O=C(O)COCCN1CCN(C(c2ccccc2)c2ccc(Cl)cc2)CC1 (centres unmarked) [Zyrlex]
effect of anti-histamine premedication alone on IRRs / macroscopic symptoms (wildtype C57/BL6 mice [1]; 10 mg/kg): The same results were seen; also recorded: did not inhibit IRRs or platelet decrease
effect of adding anti-histamine to two doses of corticosteroid (wildtype C57/BL6 mice [1]): the protective effect was retained
effect of anti-histamine premedication alone on platelet decrease (wildtype C57/BL6 mice [2]): did not inhibit IRRs or platelet decrease

Compound: CC(C)(C)c1ccc(C(O)CCCN2CCC(C(O)(c3ccccc3)c3ccccc3)CC2)cc1 (stereo not drawn) [anti-histamine]
inhibition of IRRs by other pre-medications (wildtype C57/BL6 mice [1]): None of these pre-medications could inhibit IRRs; also recorded: none of the tested substances (anti-PAF, anti-IL-6, anti-histamine and a leukotrien-antagonist) could prevent the IRRs
effect of anti-histamine premedication alone on IRRs / macroscopic symptoms (wildtype C57/BL6 mice [1]): did not inhibit macroscopic symptoms
effect of adding anti-histamine to two doses of corticosteroid (wildtype C57/BL6 mice [1]): did not affect macroscopic symptoms or platelet counts
effect of anti-histamine premedication alone on platelet decrease (wildtype C57/BL6 mice [2]): did seem to improve decrease in platelet counts

receptor saturation (mouse CD32B (mouse)): 100%
Compound: AT-130-2 IgG2a (antibody)

Compound: CCCCCCCCCCCCCCCCCCNC(=O)OCC(COP(=O)([O-])OCC[n+]1ccsc1)OC (stereo not drawn) [anti-PAF]
inhibition of IRRs by other pre-medications (wildtype C57/BL6 mice [1]): None of these pre-medications could inhibit IRRs; also recorded: none of the tested substances (anti-PAF, anti-IL-6, anti-histamine and a leukotrien-antagonist) could prevent the IRRs

Compound: Clc1ccc2c(c1)CCc1cccnc1C2=C1CCNCC1 [Aeurius]
effect of anti-histamine premedication alone on IRRs / macroscopic symptoms (wildtype C57/BL6 mice [1]; 10 mg/kg): did not inhibit IRRs or platelet decrease
effect of anti-histamine premedication alone on IRRs / macroscopic symptoms (wildtype C57/BL6 mice [1]; listed as Au, 10 mg/kg): The same results were seen
effect of adding anti-histamine to two doses of corticosteroid (wildtype C57/BL6 mice [1]): the protective effect was retained
effect of anti-histamine premedication alone on platelet decrease (wildtype C57/BL6 mice [2]): did not inhibit IRRs or platelet decrease

Compound: BI-1206: anti-FcγRIIb antibody with light chain SEQ ID No:1 and heavy chain SEQ ID No:2
duration of receptor saturation (FcγRIIB): up to 48 hours
receptor occupancy on peripheral B cells (FcγRIIB): ~100%
peripheral B lymphocytes (peripheral B lymphocytes): transient depletion of peripheral B lymphocytes
time to recovery of peripheral B lymphocytes (peripheral B lymphocytes): approximately 7 days
time to normalization of cytokines [3]: ≤ 24 h
clinical responses [4]: Both complete and partial responses have been observed
subjects with significant ALT and AST increase [5]: 3/14 and 3 out of 16
platelet decrease ([6]; 70 mg BI-1206, subjects 501-001 and 503-002, two doses of dexamethasone): no/low platelet decrease
seriousness and resolution of thrombocytopenia ([6]; 70-100 mg / ≥50 mg BI-1206): The decrease is transient and most episodes have been resolved within a week; also recorded: has not been serious nor associated with bleeding and most episodes resolved within a week
platelets ([6]; ≥50 mg BI-1206): transient decrease in platelets
grade of IRR's ([7]; 30 mg BI-1206, subject 201-003, 10th administration, two doses of dexamethasone): 1
IRRs ([7]; 70 mg BI-1206, subjects 501-001 and 503-002, dexamethasone 12 mg or 4 mg the evening before and 20 mg 30 minutes prior): None of the subjects suffered any IRRs; also recorded: Both subjects did not suffer IRRs
grade of IRRs ([7]; 70 mg BI-1206, subjects 501-001 and 503-002, dexamethasone (20 mg) only 30 minutes prior to infusion): 2-3 grade
severity and frequency of IRRs after implementation of premedication with two doses of corticosteroids ([7]; 70-100 mg BI-1206, study 17-BI-1206-02): Significantly lower frequency and severity of IRRs; also recorded: statistically significant reduced severity and frequency of IRRs
infusion related reactions during BI-1206 infusions ([7]; i.v. administration, human subjects): frequently associated with IRRs; also recorded: Frequent infusion related reactions (IRRs) have been seen

Compound: C[C@H]1C[C@H]2[C@@H]3CCC4=CC(=O)C=C[C@]4(C)[C@@]3(F)[C@@H](O)C[C@]2(C)[C@@]1(O)C(=O)CO [betamethasone]
grade of macroscopic symptoms with single premedication (wildtype C57/BL6 mice [1]; 40 mg/kg only 24 hours before i.v. 10 mg/kg AT-130-2 IgG2a): 1
